Data as given in patent publication US20030114383A1, “Calcitonin-like sequence expressed by gonadotropes of the anterior pituitary” (priority 2001, published 2003).
Bridges are numbered along the chain shown (N, C = ends). Where no end group is shown, it is not given here.

B1: Pit-CT: anterior pituitary-derived peptide with sequence homology to calcitonin; mature peptide SEQ. ID No. 3 and No. 4 (protein)
chain: QDQESPLRKHCLAPSGSPQAELQGTAHQEGIMGFLKFSPFLVVSILLLYQACSLQAVPLRSILGSSPGMATLSEEVRLLAAALVQDYMGMKPRELEQEEEQEAEGSSLDSPRSKRCGNLTTCMLGTYTQDLDLFHTFPQTSIGVEALGGEKGCGQGLGDLPPIPFWQLSSSFSPF
modifications: left off: small tags and cut ends

Tests used:
perifused rat AP cells = conditions: exogenously added; cited from earlier work
lactotrope = conditions: rats; cited from earlier work
GGH3 cells = assay: Two-tier co-culture of CT transfectants with GGH3 cells: PRL release by RIA; format: cell-based, rat; conditions: summary statement
Method: Levels of CTI and PRL in the conditioned media of LβT2 cells and CT-transfectants were determined by radioimmunoassay (RIA). The PRL RIA used the reagents provided by the National Institute of Diabetes, Digestive and Kidney diseases (NIDDK), and the assay protocol recommended by the NIDDK was followed. CTI was determined as described previously. All samples from this series of experiments were concurrently run in duplicate in the same RIA. Protein A (IgG Sorb) was used for the separation of bound from free hormone antigen. The experiments were repeated at least three separate times, and data from all the experiments were pooled for statistical analysis.
To further examine the role of pituitary-derived CT in lactotrope function, a two-tier co-culture system was developed where b 1×10^5 LβT2 cells or CT transfectants (CT.U6/A or CT.U6/B) are cultured separately in an upper chamber insert, whereas 2×10^5 GGH3 cells per well (target cells) are cultured in a 12-well plate. […] The conditioned media were analyzed for PRL by RIA. […]
The results on PRL release are expressed as ng PRL released by 100,000 cells over 24 hours. The results on PRL mRNA were digitized, normalized with β-actin mRNA and expressed as normalized densitometric units. […]

Molecule | PRL release from perifused rat AP cells (perifused rat AP cells) | Secretion of GH, FSH, LH or TSH from perifused rat AP cells (perifused rat AP cells) | Inhibition of PRL gene transcription and lactotrope cell proliferation (lactotrope) | Inhibition of prolactin secretion by the pituitary of rats (GGH3 cells)
salmon calcitonin (CSNLSTCVLGKLSQELHKLQTYPRTNTGSGTP-NH2; disulfide 1-7) [SCT, calcitonin-like peptide derived from salmon] | significantly attenuates | without altering | potent inhibitor | –
B1 | – | – | – | very potent inhibitor
